One assay is filed under the species Rattus norvegicus. Description: Percent change in total cholesterol in cholic acid (0.5%)-cholesterol (1.5%)-peanut oil (5.5%)-fed rats. The assay is classed as functional.
Take `CCCCCCCCCCCCn1nnnc1C(NC(=O)c1ccccc1C(F)(F)F)c1ccccc1` (configuration not stated): the “Change TC” value is -12%.
On the same count and under the same terms, as for `CCCCCCCCCCCCCCCn1nnc(C(NC(=O)c2c(C)cccc2C)c2ccccc2)n1` (configuration not stated), the figure is -14%.
For the compound `CCCCCCCCCCCCn1nnc(C(NC(=O)c2cccc([N+](=O)[O-])c2)c2ccccc2)n1` (configuration not stated), the “Change TC” value is listed as -33%.
Still for that read-out and setting: as for `CCCCCCCCCCCCn1nnnc1C(NC(=O)c1c(Cl)cccc1Cl)c1ccccc1` (configuration not stated), the figure is -31%; as for `CCCCCCCn1nnc(C(NC(=O)c2c(C)cccc2C)c2ccccc2)n1` (configuration not stated), -13%.
Regarding `CCCCCCCCCCCCn1nnc(C(NC(=O)c2ccccc2OC)c2ccccc2)n1` (configuration not stated), the “Change TC” value is reported as -28%.
For `CCCCCCCCCCC(C)(C)C(=O)Nc1c(OC)cc(OC)cc1OC` [CL-976], the “Change TC” value is -73%.
Still for that read-out and setting: to `CCCCCCCCCCCCn1nnc(C(NC(=O)c2ccc(C(F)(F)F)cc2)c2ccccc2)n1` (configuration not stated) belongs -10%.
Turning to `CCCCCCCCCCCCn1nnc(C(NC(=O)c2cccc(Cl)c2)c2ccccc2)n1` (configuration not stated), the “Change TC” value was determined as 3%.
As to `CCCCCCCCCCCCn1nnc(C(NC(=O)c2c(OC)cc(OC)cc2OC)c2ccccc2)n1` (configuration not stated), the “Change TC” value was -36%.
For `CCCCCCCCCCCCn1nnc(C(NC(=O)c2ccnc(SC)c2)c2ccccc2)n1` (configuration not stated), the “Change TC” value is given as -68%.
Same read-out and setting: as for `CCCCCCCCCCCCn1nnc(C(NC(=O)c2ccc([N+](=O)[O-])cc2)c2ccccc2)n1` (configuration not stated), the figure is 8%; as for `CCCCCCCCCCCCn1nnc(C(NC(=O)c2c(C)cccc2C)c2ccccc2)n1` (configuration not stated), -40%.
As for `CCCCCCCCCCCCn1nnnc1C(NC(=O)c1ccnc(SC)c1)c1ccccc1` (configuration not stated), the “Change TC” value was -37%.
`CCCCCCCCCCCCn1nnnc1C(NC(=O)c1c(C)cccc1C)c1ccccc1` (configuration not stated): the “Change TC” value is on record as -57%.
In the case of `CCCCCCCCCCCCn1nnc(C(NC(=O)c2ccc(C)cc2)c2ccccc2)n1` (configuration not stated), the “Change TC” value is -4%.
Take `CCCCCCCCCCCCn1nnc(C(NC(=O)c2ccccc2C(F)(F)F)c2ccccc2)n1` (configuration not stated): the “Change TC” value is -15%.
With `CCCCCCCCCCCCn1nnc(C(NC(=O)c2ccc(F)cc2F)c2ccccc2)n1` (configuration not stated), the “Change TC” value is -10%.
As to `CCCCCCCCCCCCn1nnnc1C(NC(=O)c1ccc(F)cc1F)c1ccccc1` (configuration not stated), the “Change TC” value is recorded as -23%.
`CCCCCCCCCCC(C)(C)NC(=O)c1c(OC)cc(OC)cc1OC`: the “Change TC” value is listed as -10%.
In the case of `CCCCCCCCCCCCn1nnc(C(NC(=O)c2ccccc2)c2ccccc2)n1` (configuration not stated), the “Change TC” value is recorded as -5%.
Turning to `CCCCCCCCCCCCn1nnc(C(NC(=O)c2ccc(OC)cc2)c2ccccc2)n1` (configuration not stated), the “Change TC” value is reported as -34%.
For the compound `CCCCCCCCCCCCn1nnc(C(NC(=O)c2c(Cl)cccc2Cl)c2ccccc2)n1` (configuration not stated), the “Change TC” value is on record as -26%.
The same measure, in the same setting: as for `CCCCCCCCCCCCn1nnc(C(NC(=O)c2c(C(C)C)cccc2C(C)C)c2ccccc2)n1` (configuration not stated), the figure is 2%; as for `CCCCCCCCCCCCn1nnc(C(NC(=O)c2ccccc2[N+](=O)[O-])c2ccccc2)n1` (configuration not stated), -27%.
Turning to `CCCCCCCCCCCCn1nnnc1C(NC(=O)c1cccc([N+](=O)[O-])c1)c1ccccc1` (configuration not stated), the “Change TC” value is given as -31%.

In another assay the target is T1, Sterol O-acyltransferase 1 (Rattus norvegicus, UniProt O70536).
T1 sequence (O70536 whole entry): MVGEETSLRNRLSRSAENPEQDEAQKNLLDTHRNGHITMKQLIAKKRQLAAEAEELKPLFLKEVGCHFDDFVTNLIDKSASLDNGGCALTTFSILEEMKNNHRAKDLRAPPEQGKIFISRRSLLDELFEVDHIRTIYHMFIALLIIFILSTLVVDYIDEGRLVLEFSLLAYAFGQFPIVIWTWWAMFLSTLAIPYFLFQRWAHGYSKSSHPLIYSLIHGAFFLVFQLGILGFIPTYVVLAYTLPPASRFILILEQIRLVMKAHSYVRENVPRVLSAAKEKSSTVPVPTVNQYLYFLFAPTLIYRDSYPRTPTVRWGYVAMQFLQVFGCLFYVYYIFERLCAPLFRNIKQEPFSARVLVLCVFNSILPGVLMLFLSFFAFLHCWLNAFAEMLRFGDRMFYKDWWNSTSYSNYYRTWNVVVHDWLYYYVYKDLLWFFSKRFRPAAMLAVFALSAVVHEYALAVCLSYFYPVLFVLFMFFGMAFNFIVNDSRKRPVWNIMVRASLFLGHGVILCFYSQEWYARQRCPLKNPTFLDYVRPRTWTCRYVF
Briefly: Concentration required for the in vitro inhibition of Acyl coenzyme A:cholesterol acyltransferase (ACAT) in liver microsomes isolated from cholesterol-fed rats. Set-up: species or system Microsome. Background: Microsomes from liver hold many membrane-bound enzymes, among them those of drug oxidation.
`CCCCCCCCCCCCn1nnnc1C(NC(=O)c1ccccc1C(F)(F)F)c1ccccc1` (configuration not stated): the IC50 (in general, the point on the concentration scale where inhibition reaches its midpoint) worked out at 0.35 µM.
Compound `CCCCCCCC/C=C\CCCCCCCCNC(=O)c1c(OC)cc(OC)cc1OC` came in with an IC50 of 9.4 µM.
On the same count and under the same terms, to `CCCCCCCCCCCCn1nnc(C(NC(=O)c2cccc([N+](=O)[O-])c2)c2ccccc2)n1` (configuration not stated) belongs 0.08 µM.
For the compound `CCCCCCCCCCCCn1nnnc1C(NC(=O)c1c(Cl)cccc1Cl)c1ccccc1` (configuration not stated), the IC50 is 0.38 µM.
Compound `CCCCCCCCCCCCn1nnc(C(NC(=O)c2ccccc2OC)c2ccccc2)n1` (configuration not stated) came in with a half-maximal inhibitory concentration (IC50) of 0.65 µM. This IC50 lies about 1.7-fold higher than the previous one.
In turn, `CCCCCCCCCCCCn1nnc(C(NC(=O)c2ccc(C(F)(F)F)cc2)c2ccccc2)n1` (configuration not stated) displayed an IC50 of 0.85 µM.
The compound `CCCCCCCCCCCCn1nnc(C(NC(=O)c2cccc(Cl)c2)c2ccccc2)n1` (configuration not stated) gave a half-inhibitory concentration (IC50) of 0.25 µM.
Compound `CCCCCCCCCCCCn1nnc(C(NC(=O)c2c(OC)cc(OC)cc2OC)c2ccccc2)n1` (configuration not stated) displayed an IC50 of 1.7 µM.
On to `CCCCCCCCCCCCn1nnc(C(NC(=O)c2ccnc(SC)c2)c2ccccc2)n1` (configuration not stated), for which it took 0.08 µM to reach half-maximal inhibition (IC50).
`CCCCCCCCCCCCn1nnc(C(NC(=O)c2ccc([N+](=O)[O-])cc2)c2ccccc2)n1` (configuration not stated) came in with an IC50 of 0.54 µM. This IC50 is about 6.8-fold higher than that of the compound before.
Same read-out and setting: to `CCCCCCCCCCCCn1nnc(C(NC(=O)c2ccc(Cl)cc2)c2ccccc2)n1` (configuration not stated) belongs 0.44 µM; to `CCCCCCCCCCCCn1nnc(C(NC(=O)c2c(C)cccc2C)c2ccccc2)n1` (configuration not stated), 0.31 µM; to `CCCCCCCCCCCCn1nnnc1C(NC(=O)c1ccnc(SC)c1)c1ccccc1` (configuration not stated), 0.14 µM.
For the compound `CCCCCCCCCCCCn1nnnc1C(NC(=O)c1c(C)cccc1C)c1ccccc1` (configuration not stated), the half-inhibitory concentration (IC50) was found to be 0.18 µM. The IC50 values of the last two compounds are within 1.5-fold of each other.
In the case of `CCCCCCCCCCCCn1nnc(C(NC(=O)c2ccc(C)cc2)c2ccccc2)n1` (configuration not stated), the IC50 turned out to be 0.51 µM.
As to `CCCCCCCCCCCCn1nnc(C(NC(=O)c2ccccc2C(F)(F)F)c2ccccc2)n1` (configuration not stated), the IC50 was found to be 0.12 µM.
The compound `CCCCCCCCCCCCn1nnc(C(NC(=O)c2ccc(F)cc2F)c2ccccc2)n1` (configuration not stated) returned an IC50 of 0.49 µM.
The same measure, in the same setting: as for `CCCCCCCCCCCCn1nnnc1C(NC(=O)c1ccc(F)cc1F)c1ccccc1` (configuration not stated), the figure is 0.38 µM; as for `CCCCCCCCCCC(C)(C)NC(=O)c1c(OC)cc(OC)cc1OC`, more than 10 µM.
Consider `CCCCCCCCCCCCn1nnc(C(NC(=O)c2ccccc2)c2ccccc2)n1` (configuration not stated), for which half-maximal inhibition (IC50) required 0.35 µM. In other words, the sub-micromolar range.
The compound `CCCCCCCCCCCCn1nnc(C(NC(=O)c2ccc(OC)cc2)c2ccccc2)n1` (configuration not stated) had an IC50 of 0.6 µM. This IC50 lies about 1.7-fold higher than the previous one.
The compound `CCCCCCCCCCCCn1nnc(C(NC(=O)c2c(Cl)cccc2Cl)c2ccccc2)n1` (configuration not stated) yielded an IC50 of 0.46 µM.
`CCCCCCCCCCCCn1nnc(C(NC(=O)c2c(C(C)C)cccc2C(C)C)c2ccccc2)n1` (configuration not stated): 0.81 µM corresponded to half-maximal inhibition (IC50).
For the compound `CCCCCCCCCCCCn1nnc(C(NC(=O)c2ccccc2[N+](=O)[O-])c2ccccc2)n1` (configuration not stated), the IC50 was 0.24 µM.
On the same count and under the same terms, to `CCCCCCCCCCCCn1nnnc1C(NC(=O)c1cccc([N+](=O)[O-])c1)c1ccccc1` (configuration not stated) belongs 0.19 µM.

The target in another assay is T2, Acyl-CoA:cholesterol acyltransferase (Oryctolagus cuniculus, UniProt Q95214).
T2 sequence (Q95214 whole entry): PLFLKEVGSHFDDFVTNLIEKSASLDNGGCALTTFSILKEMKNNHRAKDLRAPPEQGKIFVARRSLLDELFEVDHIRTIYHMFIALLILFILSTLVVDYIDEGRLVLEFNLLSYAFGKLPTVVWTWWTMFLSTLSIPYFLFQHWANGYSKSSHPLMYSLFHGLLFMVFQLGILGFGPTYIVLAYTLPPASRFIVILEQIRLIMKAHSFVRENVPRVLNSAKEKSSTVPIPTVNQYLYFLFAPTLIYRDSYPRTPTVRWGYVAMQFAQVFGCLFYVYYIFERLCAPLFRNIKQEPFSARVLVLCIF
Briefly: Concentration required for the in vitro inhibition of Acyl coenzyme A:cholesterol acyltransferase (ACAT) in intestinal microsomes isolated from cholesterol-fed rabbits. Also noted: species or system Intestine.
`CCCCCCCCCCCCn1nnc(C(NC(=O)c2c(C)cccc2C)c2ccccc2)n1` (configuration not stated): the IC50 was 0.11 µM. In other words, the sub-micromolar range.

These data come from ChEMBL document CHEMBL1128123, “Inhibitors of acyl-CoA: Cholesterol O-acyl transferase (ACAT) as hypocholesterolemic agents. 12. Syntheses and biological activity of structurally novel tetrazole amides” (Bioorg Med Chem Lett, 1995).
